The values below come from patent US9670223B2, “Compounds with super-aspirin effects” (SOLVOTRIN THERAPEUTICS LTD., priority 2011, dated 2017).

Assay [1] has as its system TCIPA. The conditions noted are these: at up to 3 mM.
Assay [2] has as its system platelets. The conditions noted are these: literature, cited from earlier work.

In the case of `O=C(OC1COC2C(O)COC12)c1cccnc1` (stereo not shown) [isosorbide-5-nicotinate], in assay [1], the “inhibition of TCIPA” value is “did not inhibit TCIPA”.
On the same count and under the same terms, to `O=C(O)c1cccnc1` [nicotinic acid, reference compound] belongs “did not inhibit TCIPA”.
In the case of `CC(=O)Oc1ccccc1C(=O)Oc1cccc(CO[N+](=O)[O-])c1` [NCX-4016], the “inhibition of platelet aggregation in WP” value in assay [2] (NO and cGMP independent) was “inhibits platelet aggregation”. In addition, the “inhibition of platelet aggregation in PRP” value in assay [2] is “does not inhibit platelet aggregation”.
